Values after ≈ are worked out from the molar mass of the structure shown. Starred links: 1 amine or outer side, 2 acyl side, 3 side chain; linkers in the order of their positions; H or OH if unused. Positions of bridges follow the written chain, without caps; N, C: chain ends. Non-standard residues stand in square brackets, D forms with d. Residues, ends and D or L forms follow the SMILES beside them. ξ: configuration not given here. ξGly(decyl) = CCCCCCCCCCC(N)C(=O)O; Suc = O=C(CCC(=O)[*:2])[*:1]
How the values were obtained:
Pseudomonas aeruginosa [1] = experiment: Antimicrobial activity against Pseudomonas aeruginosa ATCC 27853 after 20 hrs by microdilution assay; format: functional
Klebsiella pneumoniae [2] = experiment: Antimicrobial activity against multidrug resistant Klebsiella pneumoniae ATCC 700603 after 20 hrs by microdilution assay; format: functional
Klebsiella pneumoniae [3] = experiment: Antimicrobial activity against NDM-1 positive Klebsiella pneumoniae BAA-2146 after 20 hrs by microdilution assay; format: functional
Staphylococcus aureus [4] = experiment: Antimicrobial activity against clinical isolates of multi-resistant/methicillin-resistant Staphylococcus aureus after 20 hrs by microdilution assay; format: functional
Staphylococcus aureus [5] = experiment: Antimicrobial activity against vancomycin-resistant Staphylococcus aureus NARSA VRS10 after 20 hrs by microdilution assay; format: functional; conditions: NARSA VRS10, 20 h
Staphylococcus aureus [6] = experiment: Antimicrobial activity against vancomycin-resistant Staphylococcus aureus NARSA VRS4 after 20 hrs by microdilution assay; format: functional; conditions: NARSA VRS4, 20 h
Enterococcus faecium [7] = experiment: Antimicrobial activity against multidrug resistant and high level vancomycin resistant Enterococcus faecium ATCC 51559 after 20 hrs by microdilution assay; format: functional; conditions: ATCC 51559, 20 h
Staphylococcus aureus [8] = experiment: Antimicrobial activity against clinical isolates of methicillin-resistant Staphylococcus aureus after 20 hrs by microdilution assay; format: functional
Staphylococcus aureus [9] = experiment: Antimicrobial activity against vancomycin-resistant Staphylococcus aureus NARSA VRS1 after 20 hrs by microdilution assay; format: functional; conditions: NARSA VRS1, 20 h
Staphylococcus aureus [10] = experiment: Antimicrobial activity against glycopeptide-intermediate Staphylococcus aureus NRS17 after 20 hrs by microdilution assay; format: functional; conditions: NRS17, 20 h
Staphylococcus aureus [11] = experiment: Antimicrobial activity against methicillin-resistant Staphylococcus aureus ATCC 43300 after 20 hrs by microdilution assay; format: functional; conditions: ATCC 43300, 20 h
Staphylococcus aureus [12] = experiment: Antimicrobial activity against glycopeptide-intermediate Staphylococcus aureus NRS1 after 20 hrs by microdilution assay; format: functional; conditions: NRS1, 20 h
Escherichia coli [13] = experiment: Antimicrobial activity against Escherichia coli ATCC 25922 after 20 hrs by microdilution assay; format: functional
Acinetobacter baumannii [14] = experiment: Antimicrobial activity against Acinetobacter baumannii […] after 20 hrs by microdilution assay; format: functional
Staphylococcus aureus [15] = experiment: Antimicrobial activity against methicillin-susceptible Staphylococcus aureus ATCC 25923 after 20 hrs by microdilution assay; format: functional; conditions: ATCC 25923, 20 h
Klebsiella pneumoniae [16] = experiment: Antimicrobial activity against Klebsiella pneumoniae ATCC 13883 after 20 hrs by microdilution assay; format: functional
[17] = Cytotoxicity against HEK293 cells after 24 hrs by MTT assay; format: cell-based; conditions: human
[18] = Cytotoxicity against human HepG2 cells after 24 hrs by MTT assay; format: cell-based
Streptococcus pneumoniae [19] = experiment: Antimicrobial activity against multidrug resistant Streptococcus pneumoniae ATCC 700677 after 20 hrs by microdilution assay; format: functional; conditions: ATCC 700677, 20 h
Enterococcus faecalis [20] = experiment: Antimicrobial activity against clinical isolates of high level vancomycin-resistant Enterococcus faecalis after 20 hrs by microdilution assay; format: functional
Pseudomonas aeruginosa [21] = experiment: Antimicrobial activity against Pseudomonas aeruginosa ATCC 27853 after 24 hrs by M7-A7 method; format: functional; conditions: ATCC 27853, 24 h
Klebsiella pneumoniae [22] = experiment: Antimicrobial activity against NDM-1 positive Klebsiella pneumoniae BAA-2146 after 24 hrs by M7-A7 method; format: functional; conditions: ATCC BAA-2146, 24 h
Streptococcus pneumoniae [23] = experiment: Antimicrobial activity against multidrug resistant Streptococcus pneumoniae ATCC 700677 after 24 hrs by M7-A7 method; format: functional; conditions: ATCC 700677, 24 h
Staphylococcus aureus [24] = experiment: Antimicrobial activity against glycopeptide-intermediate Staphylococcus aureus NRS1 after 24 hrs by M7-A7 method; format: functional; conditions: NRS1, 24 h
Staphylococcus aureus [25] = experiment: Antimicrobial activity against clinical isolates of multi-resistant/methicillin-resistant Staphylococcus aureus after 24 hrs by M7-A7 method; format: functional
Staphylococcus aureus [26] = experiment: Antimicrobial activity against methicillin-resistant Staphylococcus aureus ATCC 43300 after 24 hrs by M7-A7 method; format: functional; conditions: ATCC 43300, 24 h
Staphylococcus aureus [27] = experiment: Antimicrobial activity against glycopeptide-intermediate Staphylococcus aureus NRS17 after 24 hrs by M7-A7 method; format: functional; conditions: NRS17, 24 h
Staphylococcus aureus [28] = experiment: Antimicrobial activity against vancomycin-resistant Staphylococcus aureus NARSA VRS1 after 24 hrs by M7-A7 method; format: functional; conditions: NARSA VRS1, 24 h
Staphylococcus aureus [29] = experiment: Antimicrobial activity against vancomycin-resistant Staphylococcus aureus NARSA VRS10 after 24 hrs by M7-A7 method; format: functional; conditions: NARSA VRS10, 24 h
Staphylococcus aureus [30] = experiment: Antimicrobial activity against methicillin-susceptible Staphylococcus aureus ATCC 25923 after 24 hrs by M7-A7 method; format: functional; conditions: ATCC 25923, 24 h
Staphylococcus aureus [31] = experiment: Antimicrobial activity against clinical isolates of methicillin-resistant Staphylococcus aureus after 24 hrs by M7-A7 method; format: functional
Enterococcus faecium [32] = experiment: Antimicrobial activity against multidrug resistant and high level vancomycin resistant Enterococcus faecium ATCC 51559 after 24 hrs by M7-A7 method; format: functional; conditions: ATCC 51559, 24 h
Klebsiella pneumoniae [33] = experiment: Antimicrobial activity against multidrug resistant Klebsiella pneumoniae ATCC 700603 after 24 hrs by M7-A7 method; format: functional; conditions: Klebsiella pneumoniae, 700603, 24 h
Enterococcus faecalis [34] = experiment: Antimicrobial activity against clinical isolates of high level vancomycin-resistant Enterococcus faecalis after 24 hrs by M7-A7 method; format: functional
Acinetobacter baumannii [35] = experiment: Antimicrobial activity against Acinetobacter baumannii […] after 24 hrs by M7-A7 method; format: functional
Klebsiella pneumoniae [36] = experiment: Antimicrobial activity against Klebsiella pneumoniae ATCC 13883 after 24 hrs by M7-A7 method; format: functional; conditions: ATCC 13883, 24 h
Escherichia coli [37] = experiment: Antimicrobial activity against Escherichia coli ATCC 25922 after 24 hrs by M7-A7 method; format: functional; conditions: ATCC 25922, 24 h
Staphylococcus aureus [38] = experiment: Antimicrobial activity against vancomycin-resistant Staphylococcus aureus NARSA VRS4 after 24 hrs by M7-A7 method; format: functional; conditions: NARSA VRS4, 24 h
[39] = Klebsiella pneumoniae, 700603, 20 h

Compound | MIC (Pseudomonas aeruginosa [1]; ATCC 27853, 20 h) [µM] | MIC (Klebsiella pneumoniae [2]; [39]) [µM] | MIC (Klebsiella pneumoniae [3]; ATCC BAA-2146, 20 h) [µM] | MIC (Staphylococcus aureus [4]) [µM] | MIC (Staphylococcus aureus [5]) [µM] | MIC (Staphylococcus aureus [6]) [µM] | MIC (Enterococcus faecium [7]) [µM] | MIC (Staphylococcus aureus [8]) [µM] | MIC (Staphylococcus aureus [9]) [µM] | MIC (Staphylococcus aureus [10]) [µM] | MIC (Staphylococcus aureus [11]) [µM] | MIC (Staphylococcus aureus [12]) [µM] | MIC (Escherichia coli [13]; ATCC 25922, 20 h) [µM] | MIC (Acinetobacter baumannii [14]) [µM] | MIC (Staphylococcus aureus [15]) [µM] | MIC (Klebsiella pneumoniae [16]; ATCC 13883, 20 h) [µM] | CC50 at 24 h [17] [µM] | CC50 at 24 h [18] [µM] | MIC (Streptococcus pneumoniae [19]) [µM] | MIC (Enterococcus faecalis [20]) [µM] | also measured
CCCCCCCCCCC(NC(=O)C(CCCCCCCCCC)NC(=O)C(CCCCNC(=O)C(N)CCCCN)NC(=O)C(N)CCCCN)C(N)=O (centres undefined) (H-KK(Lys)[ξGly(decyl)][ξGly(decyl)]-NH2; configuration not given here) | 30 (≈ 23.9 µg/mL) | > 30 | > 30 | 0.1 (≈ 0.0796 µg/mL) | 0.1 (≈ 0.0796 µg/mL) | 0.2 (≈ 0.159 µg/mL) | 0.2 (≈ 0.159 µg/mL) | 0.1 (≈ 0.0796 µg/mL) | 0.1 (≈ 0.0796 µg/mL) | 0.1 (≈ 0.0796 µg/mL) | 0.1 (≈ 0.0796 µg/mL) | 0.1 (≈ 0.0796 µg/mL) | 30 (≈ 23.9 µg/mL) | > 30 | 0.06 (≈ 0.0478 µg/mL) | > 30 | > 15 | ≥ 15 | 0.2 (≈ 0.159 µg/mL) | 0.2 (≈ 0.159 µg/mL) | –
COLISTIN | – | – | – | – | – | – | – | – | – | – | – | – | – | 0.04 | – | – | – | – | – | – | MIC (Pseudomonas aeruginosa [1]): 0.09 µM; MIC (Klebsiella pneumoniae [2]): 0.04 µM; MIC (Klebsiella pneumoniae [3]; ATCC BAA-2146): 0.04 µM; MIC (Escherichia coli [13]): 0.02 µM; MIC (Klebsiella pneumoniae [16]): 0.04 µM
CCCCCCCCCCC1NC(=O)C(CCCCCCCCCC)NC(=O)C(CCCCN)NC(=O)C(CCCCN)NC(=O)CCC(=O)NCCCCC(C(=O)NCC(N)=O)NC1=O (centres undefined) (KK[ξGly(decyl)][ξGly(decyl)]KG-NH2; linker N-5 via Suc; configuration not given here) | – | – | – | – | – | – | – | – | – | – | – | – | – | – | – | – | – | – | – | – | MIC (Pseudomonas aeruginosa [21]): 30 µM (≈ 28.1 µg/mL); MIC (Klebsiella pneumoniae [22]): > 30 µM; MIC (Streptococcus pneumoniae [23]): 0.9 µM (≈ 0.842 µg/mL); MIC (Staphylococcus aureus [24]): 1.2 µM (≈ 1.12 µg/mL); MIC (Staphylococcus aureus [25]): 1.9 µM (≈ 1.78 µg/mL); MIC (Staphylococcus aureus [26]): 0.5 µM (≈ 0.468 µg/mL); MIC (Staphylococcus aureus [27]): 0.9 µM (≈ 0.842 µg/mL); MIC (Staphylococcus aureus [28]): 0.7 µM (≈ 0.655 µg/mL); MIC (Staphylococcus aureus [29]): 0.9 µM (≈ 0.842 µg/mL); MIC (Staphylococcus aureus [30]): 0.5 µM (≈ 0.468 µg/mL); MIC (Staphylococcus aureus [31]): 1.4 µM (≈ 1.31 µg/mL); MIC (Enterococcus faecium [32]): 0.3 µM (≈ 0.281 µg/mL); MIC (Klebsiella pneumoniae [33]): > 30 µM; MIC (Enterococcus faecalis [34]): 0.2 µM (≈ 0.187 µg/mL); MIC (Acinetobacter baumannii [35]): 15 µM (≈ 14 µg/mL); MIC (Klebsiella pneumoniae [36]): > 30 µM; MIC (Escherichia coli [37]): ≥ 30 µM; MIC (Staphylococcus aureus [38]): 0.5 µM (≈ 0.468 µg/mL)
CCCCCCCCCCC(NC(=O)C(CCCCNC(=O)C(CCCCN)NC(C)=O)NC(=O)C(CCCCN)NC(C)=O)C(N)=O (centres undefined) | > 30 | > 30 | > 30 | > 30 | > 30 | > 30 | > 30 | > 30 | > 30 | > 30 | > 30 | > 30 | > 30 | > 30 | > 30 | > 30 | > 15 | > 15 | > 30 | 30 (≈ 20.5 µg/mL) | –

Source: ChEMBL document CHEMBL3779783, “Short cationic lipopeptides as effective antibacterial agents: Design, physicochemical properties and biological evaluation” (Bioorg Med Chem, 2016)
